Like-named read-outs stand apart in the source and are kept apart here.
How the values were obtained:
SARS-CoV-2 3CL protease = SARS-CoV-2 3CL protease (Severe acute respiratory syndrome coronavirus 2, UniProt P0DTD1); assay: biochemical; conditions: 50% SARS-CoV-2 3CL protease inhibitory concentration, read-out: IC50
SARS-CoV-2 = assay: microbe, parasite or virus in culture; type: cell-based; conditions: Severe acute respiratory syndrome coronavirus 2, VeroE6/TMPRSS2, 72 h, 50% SARS-CoV-2 infected cell death inhibitory concentration, VeroE6/TMPRSS2 cells, 3 days culture

Compound	IC50 (SARS-CoV-2 3CL protease; RapidFire MS) [nM]	EC50 (SARS-CoV-2; CellTiter-Glo 2.0) [nM]	IC50 (SARS-CoV-2 3CL protease; given as class symbols) [nM]	EC50 (SARS-CoV-2; class symbols) [nM]
Cc1cncc(-n2c(=O)nc(Nc3ccc4nn(CC(F)(F)F)cc4c3)n(Cc3ccc(F)c(C#N)c3)c2=O)c1 [II-0567]	8.8	650	–	–
O=c1[nH]cccc1Cn1c(=O)nc(Nc2cc3cn(CCCOC(F)(F)F)nc3cc2Cl)n(Cc2cc(F)c(F)c(F)c2)c1=O [Compound I-0400]	–	–	< 100	1000 to 10000
CN(C)C(=O)Cn1cc2cc(Nc3nc(=O)n(-c4cncc5ccccc45)c(=O)n3Cc3cc(F)c(F)cc3F)c(Cl)cc2n1 [II-0002]	–	–	< 100	1000 to 10000
Cc1cc(F)c(F)cc1Cn1c(Nc2cc3cn(C)nc3cc2Cl)nc(=O)n(Cc2ncn(C)n2)c1=O [II-0406]	–	–	< 100	< 1000
COCCn1cc2cc(Nc3nc(=O)n(Cc4ccc[nH]c4=O)c(=O)n3Cc3cc(F)c(F)c(F)c3)c(Cl)cc2n1 [Compound I-0285]	–	–	< 100	1000 to 10000
Cn1cc2cc(Nc3nc(=O)n(-c4cncc5ccccc45)c(=O)n3Cc3ccc(F)c(C#N)c3)ccc2n1 [Compound I-0353]	5.4	306	–	–
CNc1nc2cc(Cl)c(Nc3nc(=O)n(Cc4ncn(C)n4)c(=O)n3Cc3cc(F)c(F)cc3F)cc2s1 [II-0048]	–	–	< 100	< 1000
O=c1[nH]cc(F)cc1Cn1c(=O)nc(Nc2cc3c(cc2Cl)OCC3)n(Cc2cc(F)c(F)c(F)c2)c1=O [Compound I-0272]	–	–	< 100	< 1000
Cc1cncc(-n2c(=O)nc(Nc3ccc4nn(CC(F)(F)F)cc4c3)n(Cc3cc(C#N)ccc3C)c2=O)c1 [II-0299]	3.3	202	–	–
Cc1cncc(-n2c(=O)nc(Nc3cc4cn(C)nc4cc3F)n(Cc3cc(C#N)c(F)cc3Cl)c2=O)c1 [II-0053]	–	–	< 100	< 1000
Cc1cncc(-n2c(=O)nc(Nc3cc4cn(C)nc4cc3F)n(Cc3cc(F)c(F)c(F)c3)c2=O)c1 [Compound I-0112]	–	–	< 100	< 1000
Cc1cncc(-n2c(=O)nc(Nc3cc4cn(C5CC5)nc4cc3Cl)n(Cc3ccc(F)c(C#N)c3)c2=O)c1 [II-0366]	–	–	< 100	< 1000
Cc1cc(F)c(C#N)cc1Cn1c(Nc2cc3cn(C)nc3cc2Cl)nc(=O)n(-c2cncc(N)c2)c1=O [II-0380]	–	–	< 100	1000 to 10000
CC(=O)NCCn1cc2cc(Nc3nc(=O)n(-c4cncc5ccccc45)c(=O)n3Cc3cc(F)c(F)c(F)c3)c(Cl)cc2n1 [Compound I-0471]	–	–	< 100	1000 to 10000
Cn1cc2cc(Nc3nc(=O)n(Cc4ncccn4)c(=O)n3Cc3cc(F)c(F)cc3F)c(Cl)cc2n1 [II-0245]	–	–	< 100	< 1000
COc1ccc(Nc2nc(=O)n(-c3cncc(C)c3)c(=O)n2Cc2ccc(F)c(C#N)c2)c(Br)c1 [II-0174]	–	–	< 100	< 1000
O=c1[nH]cccc1Cn1c(=O)nc(Nc2cc3c(cc2Cl)nc2n3CCOC2)n(Cc2cc(F)c(F)c(F)c2)c1=O [Compound I-0457]	7.2	5300	–	–
CCNC(=O)Cn1c(=O)nc(Nc2cc3cn(C)nc3cc2Cl)n(Cc2cc(F)c(F)c(F)c2)c1=O [II-0329]	140	11500	–	–
Cc1cncc(-n2c(=O)nc(Nc3cc4cn(C)nc4cc3Cl)n(Cc3cc(F)cc(Cl)c3)c2=O)c1 [II-0177]	–	–	< 100	< 1000
COCCCn1cc2cc(Nc3nc(=O)n(Cc4ccc[nH]c4=O)c(=O)n3Cc3cc(F)c(F)c(F)c3)c(Cl)cc2n1 [Compound I-0248]	–	–	< 100	1000 to 10000
COc1c2cc(Nc3nc(=O)n(Cc4ncn(C)n4)c(=O)n3Cc3cc(F)c(F)cc3F)c(Cl)cc2nn1C [II-0454]	–	–	< 100	1000 to 10000
Cn1cc2cc(Nc3nc(=O)n(Cc4cc(Cl)c[nH]c4=O)c(=O)n3Cc3cc(F)c(F)c(F)c3)c(Cl)cc2n1 [Compound I-0077]	–	–	< 100	< 1000
Cc1cncc(-n2c(=O)nc(Nc3cc4cn(C)nc4cc3Cl)n(Cc3cc(F)c(F)cc3Cc3cccc(CO)c3)c2=O)c1 [II-0025]	–	–	< 100	8000
Cc1cncc(-n2c(=O)nc(Nc3cc4cn(C)nc4cc3Cl)n(Cc3cc(C#N)ccc3CCC(C)(C)O)c2=O)c1 [II-0024]	–	–	< 100	1000 to 10000
C=Cc1cc(F)c(F)cc1Cn1c(Nc2cc3cn(C)nc3cc2Cl)nc(=O)n(-c2cncc(C)c2)c1=O [II-0067]	–	–	< 100	< 1000
COC(=O)Nc1nc2cc(Cl)c(Nc3nc(=O)n(-c4cncc(C)c4)c(=O)n3Cc3cc(Cl)c(F)cn3)cc2s1 [II-0079]	–	–	< 100	< 1000
Cc1cncc(-n2c(=O)nc(Nc3cc4cn(C[C@H](C)O)nc4cc3Cl)n(Cc3cc(F)c(F)c(F)c3)c2=O)c1 [II-0101]	–	–	< 100	< 1000
Cc1ccc(C#N)cc1Cn1c(Nc2ccc3nn(C)cc3c2)nc(=O)n(-c2cncc(Cl)c2)c1=O [II-0347]	7	190	–	–
